Laboratory results published in publication PMC9653173, “Trotabresib (CC-90010) in combination with adjuvant temozolomide or concomitant temozolomide plus radiotherapy in patients with newly diagnosed glioblastoma” (Neuro-Oncology Advances, 2022).
Like-named read-outs stand apart in the source and are kept apart here.

Key:
[1] = system: MYC; details: in vitro; cited from earlier work
[2] = system: rhabdomyosarcoma cells; parameters: method as in PMID 32200036; details: cited from earlier work
[3] = system: glioblastoma; parameters: method as in earlier work; details: study discontinued; cited from earlier work
[4] = system: patients with newly diagnosed glioblastoma
Text: The phase Ib, dose-escalation part of this study explored escalating oral doses of trotabresib in combination with TMZ in the adjuvant setting and with TMZ plus RT in the concomitant setting. […] Dose-escalation decisions were made by the safety review committee, based on all available safety, pharmacokinetics, pharmacodynamics, and preliminary efficacy information, and a calculation of risk assessment using a Bayesian logistic regression model.
The primary endpoints of the study were to determine the safety and tolerability, maximum tolerated dose, and/or recommended phase II dose (RP2D) of trotabresib in combination with TMZ as adjuvant therapy, and with TMZ and RT as concomitant therapy. […] Trotabresib pharmacodynamics was an exploratory endpoint.
Adverse events (AEs) were classified using the Medical Dictionary for Regulatory Activities v18.1 or higher system organ class and preferred term. Severity of AEs was graded based on the patient’s symptoms according to the National Cancer Institute Common Terminology Criteria for Adverse Events v5.0.[35] Dose-limiting toxicities (DLTs) were defined as any of the toxicities described in Supplementary Table S2 occurring within the DLT assessment period (cycle 1 [28 days]), unless the event could clearly be determined to be unrelated to trotabresib. Screening MRI scans were performed after surgical resection and within 28 days (+3 days) prior to initiation of study treatment. Subsequent tumor assessments by MRI or CT were performed at week 10 during the concomitant treatment period and at the end of every other treatment cycle from cycle 2 onwards during the adjuvant and trotabresib monotherapy treatment periods. Best overall response (BOR) was evaluated as complete response (CR), partial response (PR), SD, progressive disease (PD), or not evaluable, according to Response Assessment in Neuro-Oncology criteria for high-grade glioma.[36] Plasma samples were collected during the first treatment cycle for investigation of trotabresib pharmacokinetics and pharmacodynamics. Plasma pharmacokinetic parameters assessed included peak plasma concentration (Cmax), time to peak plasma concentration (tmax), area under the plasma concentration–time curve (AUC), and terminal half-life (t½). Pharmacodynamic markers assessed included blood levels of CCR1 and HEXIM1 mRNA, which are established markers of BET inhibitor target engagement.[17],[22],[37],[38]

[5] = system: breast cancer cells; parameters: method as in PMID 32848091; details: cited from earlier work
[6] = adjuvant overall (N = 18), related to labelled drug(s)
[7] = concomitant overall (N = 14), related to labelled drug(s)

SMILES: Cc1sc2c(c1C)C(c1ccc(Cl)cc1)=N[C@@H](CC(=O)OC(C)(C)C)c1nnc(C)n1-2 [JQ1, reference compound]
- MYC expression [1]: downregulated in vitro

SMILES: Cc1sc2c(c1C)C(c1ccc(Cl)cc1)=N[C@@H](CC(=O)Nc1ccc(O)cc1)c1nnc(C)n1-2 [OTX015]
- Antitumor activity as a single agent [2]: demonstrated antitumor activity as a single agent
- Effect on ionizing radiation [2]: potentiated the effects of ionizing radiation
- Clinical activity (primary endpoint 6-month PFS) [3]: lack of clinical activity

SMILES: Cn1nnc2c(C(N)=O)ncn2c1=O [TMZ, temozolomide]
- ALT increased TRAE, grade 3/4 [4, 6]: 1 (6) n (%)
- AST increased TRAE, any grade [4, 6]: 2 (11) n (%)
- AST increased TRAE, grade 3/4 [4, 6]: 0 n (%)
- Acneiform dermatitis TRAE, any grade [4, 6]: 1 (6) n (%)
- Acneiform dermatitis TRAE, grade 3/4 [4, 6]: 0 n (%)
- Anemia TRAE, any grade [4, 6]: 3 (17) n (%)
- Anemia TRAE, grade 3/4 [4, 6]: 0 n (%)
- Any TRAE, any grade [4, 6]: 17 (94) n (%)
- Any TRAE, grade 3/4 [4, 6]: 10 (56) n (%)
- Asthenia TRAE, any grade [4, 6]: 6 (33) n (%)
- Asthenia TRAE, grade 3/4 [4, 6]: 1 (6) n (%)
- Blood bilirubin increased TRAE, any grade [4, 6]: 0 n (%)
- Blood bilirubin increased TRAE, grade 3/4 [4, 6]: 0 n (%)
- Decreased appetite TRAE, any grade [4, 6]: 6 (33) n (%)
- Decreased appetite TRAE, grade 3/4 [4, 6]: 0 n (%)
- Diarrhea TRAE, any grade [4, 6]: 5 (28) n (%)
- Diarrhea TRAE, grade 3/4 [4, 6]: 0 n (%)
- Dysgeusia TRAE, any grade [4, 6]: 4 (22) n (%)
- Dysgeusia TRAE, grade 3/4 [4, 6]: 0 n (%)
- Dyspepsia TRAE, any grade [4, 6]: 2 (11) n (%)
- Dyspepsia TRAE, grade 3/4 [4, 6]: 0 n (%)
- Fatigue TRAE, any grade [4, 6]: 2 (11) n (%)
- Fatigue TRAE, grade 3/4 [4, 6]: 0 n (%)
- Hyperbilirubinemia TRAE, any grade [4, 6]: 3 (17) n (%)
- Hyperbilirubinemia TRAE, grade 3/4 [4, 6]: 0 n (%)
- Hyperglycemia TRAE, any grade [4, 6]: 1 (6) n (%)
- Hyperglycemia TRAE, grade 3/4 [4, 6]: 0 n (%)
- Hypophosphatemia TRAE, any grade [4, 6]: 1 (6) n (%)
- Hypophosphatemia TRAE, grade 3/4 [4, 6]: 0 n (%)
- Hypotension TRAE, any grade [4, 6]: 0 n (%)
- Hypotension TRAE, grade 3/4 [4, 6]: 0 n (%)
- Insomnia TRAE, any grade [4, 6]: 1 (6) n (%)
- Insomnia TRAE, grade 3/4 [4, 6]: 0 n (%)
- Intracranial hemorrhage TRAE, any grade [4, 6]: 0 n (%)
- Intracranial hemorrhage TRAE, grade 3/4 [4, 6]: 0 n (%)
- Leukopenia TRAE, any grade [4, 6]: 2 (11) n (%)
- Leukopenia TRAE, grade 3/4 [4, 6]: 0 n (%)
- Lymphopenia TRAE, any grade [4, 6]: 2 (11) n (%)
- Lymphopenia TRAE, grade 3/4 [4, 6]: 1 (6) n (%)
- Nausea TRAE, any grade [4, 6]: 12 (67) n (%)
- Nausea TRAE, grade 3/4 [4, 6]: 0 n (%)
- Neutropenia TRAE, any grade [4, 6]: 7 (39) n (%)
- Neutropenia TRAE, grade 3/4 [4, 6]: 4 (22) n (%)
- Pruritus TRAE, any grade [4, 6]: 0 n (%)
- Pruritus TRAE, grade 3/4 [4, 6]: 0 n (%)
- Rash TRAE, any grade [4, 6]: 1 (6) n (%)
- Rash TRAE, grade 3/4 [4, 6]: 0 n (%)
- Seizure TRAE, any grade [4, 6]: 0 n (%)
- Seizure TRAE, grade 3/4 [4, 6]: 0 n (%)
- Thrombocytopenia TRAE, any grade [4, 6]: 13 (72) n (%)
- Thrombocytopenia TRAE, grade 3/4 [4, 6]: 9 (50) n (%)
- Vomiting TRAE, any grade [4, 6]: 7 (39) n (%)
- Vomiting TRAE, grade 3/4 [4, 6]: 0 n (%)
- ALT increased TRAE, any grade [4, 7]: 1 (7) n (%)
- ALT increased TRAE, grade 3/4 [4, 7]: 1 (7) n (%)
- AST increased TRAE, any grade [4, 7]: 1 (7) n (%)
- AST increased TRAE, grade 3/4 [4, 7]: 0 n (%)
- Acneiform dermatitis TRAE, any grade [4, 7]: 2 (14) n (%)
- Acneiform dermatitis TRAE, grade 3/4 [4, 7]: 0 n (%)
- Anemia TRAE, any grade [4, 7]: 4 (29) n (%)
- Anemia TRAE, grade 3/4 [4, 7]: 2 (14) n (%)
- Any TRAE, any grade [4, 7]: 14 (100) n (%)
- Any TRAE, grade 3/4 [4, 7]: 9 (64) n (%)
- Asthenia TRAE, any grade [4, 7]: 4 (29) n (%)
- Asthenia TRAE, grade 3/4 [4, 7]: 0 n (%)
- Blood bilirubin increased TRAE, any grade [4, 7]: 1 (7) n (%)
- Blood bilirubin increased TRAE, grade 3/4 [4, 7]: 0 n (%)
- Decreased appetite TRAE, any grade [4, 7]: 4 (29) n (%)
- Decreased appetite TRAE, grade 3/4 [4, 7]: 0 n (%)
- Diarrhea TRAE, any grade [4, 7]: 3 (21) n (%)
- Diarrhea TRAE, grade 3/4 [4, 7]: 0 n (%)
- Dysgeusia TRAE, any grade [4, 7]: 4 (29) n (%)
- Dysgeusia TRAE, grade 3/4 [4, 7]: 0 n (%)
- Dyspepsia TRAE, any grade [4, 7]: 2 (14) n (%)
- Dyspepsia TRAE, grade 3/4 [4, 7]: 0 n (%)
- Fatigue TRAE, any grade [4, 7]: 5 (36) n (%)
- Fatigue TRAE, grade 3/4 [4, 7]: 1 (7) n (%)
- Hyperbilirubinemia TRAE, any grade [4, 7]: 2 (14) n (%)
- Hyperbilirubinemia TRAE, grade 3/4 [4, 7]: 0 n (%)
- Hyperglycemia TRAE, any grade [4, 7]: 0 n (%)
- Hyperglycemia TRAE, grade 3/4 [4, 7]: 0 n (%)
- Hypophosphatemia TRAE, any grade [4, 7]: 1 (7) n (%)
- Hypophosphatemia TRAE, grade 3/4 [4, 7]: 0 n (%)
- Hypotension TRAE, any grade [4, 7]: 0 n (%)
- Hypotension TRAE, grade 3/4 [4, 7]: 0 n (%)
- Insomnia TRAE, any grade [4, 7]: 0 n (%)
- Insomnia TRAE, grade 3/4 [4, 7]: 0 n (%)
- Intracranial hemorrhage TRAE, any grade [4, 7]: 0 n (%)
- Intracranial hemorrhage TRAE, grade 3/4 [4, 7]: 0 n (%)
- Leukopenia TRAE, any grade [4, 7]: 1 (7) n (%)
- Leukopenia TRAE, grade 3/4 [4, 7]: 0 n (%)
- Lymphopenia TRAE, any grade [4, 7]: 3 (21) n (%)
- Lymphopenia TRAE, grade 3/4 [4, 7]: 1 (7) n (%)
- Nausea TRAE, any grade [4, 7]: 11 (79) n (%)
- Nausea TRAE, grade 3/4 [4, 7]: 0 n (%)
- Neutropenia TRAE, any grade [4, 7]: 6 (43) n (%)
- Neutropenia TRAE, grade 3/4 [4, 7]: 4 (29) n (%)
- Pruritus TRAE, any grade [4, 7]: 0 n (%)
- Pruritus TRAE, grade 3/4 [4, 7]: 0 n (%)
- Rash TRAE, any grade [4, 7]: 0 n (%)
- Rash TRAE, grade 3/4 [4, 7]: 0 n (%)
- Seizure TRAE, any grade [4, 7]: 0 n (%)
- Seizure TRAE, grade 3/4 [4, 7]: 0 n (%)
- Thrombocytopenia TRAE, any grade [4, 7]: 10 (71) n (%)
- Thrombocytopenia TRAE, grade 3/4 [4, 7]: 7 (50) n (%)
- Vomiting TRAE, any grade [4, 7]: 8 (57) n (%)
- Vomiting TRAE, grade 3/4 [4, 7]: 0 n (%)
- ALT increased TRAE, any grade ([4]; human, in vivo): 2 (11) n (%)
- TEAEs leading to discontinuation of the labelled study drug(s), patients ([4]; human, in vivo): 2 (11) 2 (11) 2 (11) n (%)
- TRAEs leading to discontinuation of TMZ, related to labelled drug(s) ([4]; human, in vivo): 1 (6) 1 (6) 1 (6) n (%)
- TRAEs leading to discontinuation of any study drug, related to labelled drug(s) ([4]; human, in vivo): 1 (6) 1 (6) 1 (6) n (%)
- TRAEs leading to discontinuation of trotabresib, related to labelled drug(s) ([4]; human, in vivo): 1 (6) 1 (6) 1 (6) n (%)

SMILES: CCNC(=O)C[C@@H]1N=C(c2ccc(Cl)cc2)c2cc(OC)ccc2-n2c(C)nnc21 [iBET-762]
- Expression of the HER2-regulated gene TUBB3 [5]: upregulated expression
- Sensitivity to vinorelbine ([5]; in vitro and in PDX models): increased sensitivity to vinorelbine
